Test results: EP0947200B1, “Compositions comprising Cetrorelix acetate for the treatment of female infertility and gonadal protection” (Zentaris IVF GmbH, priority 1993, dated 2015)

Legend:
[1] = Solubility and hydrolytic stability in acetic acid; type: physicochemical
From the text: Überraschenderweise stellte sich nun heraus, daß man Cetrorelix in 30 %iger VolumenNolumen Essigsäure gut lösen kann. Diese Lösung wird anschließend auf eine Endkonzentration von 3 % Cetrorelix mit Wasser für Injektionszwecke aufgefüllt und Mannit hinzugegeben. […] Lösungen, die nach dieser Methode hergestellt werden, […]

[2] = type: physicochemical
Protocol: Gemäß vorliegender Anmeldung soll der Wirkstoff subcutan in einer Dosis von 0,1 bis 20 mg appliziert werden können. Die wässrigen Lösungen des Dekapeptids sind instabil, eine Autoklavierung im Endbehälter ist nicht möglich. […] Um eine injizierbare Lösung zu erhalten, war daher die Entwicklung eines Lyophilisats erforderlich. Allerdings ist die Menge des Wirkstoffes in der zu lyophilisierenden Lösung so gering, dass bei niedrigen Wirkstoffkonzentrationen nur ein lockerer Flaum an der Glaswand der Ampulle nach der Trocknung der hilfsstofffreien Lösung resultiert, der mit dem zur Sterilisierung benutzten Wasserdampfstrom aus dem Vial ausgetragen wird. Es ist also erforderlich, einen Gerüstbildner einzusetzen, der einen stabilen Kuchen bildet. Bei hohen Konzentrationen kann auf diesen Hilfsstoff verzichtet werden. Als Gerüstbildner kommen folgende Hilfsstoffe infrage: Hexite, insbesondere Mannit, Glucit, Sorbit, wie D-Sorbit, Dulcit, Allit, Altrit (zum Beispiel D- und L-Altrit), Idit (zum Beispiel D- und L-Idit), deren optisch aktive Formen (D- beziehungsweise L-Formen) sowie die entsprechenden Racemate. Insbesondere wird Mannit, wie D-Mannit, L-Mannit, DL-Mannit, Sorbit und/oder Dulcit verwendet, und zwar hiervon vorzugsweise D-Mannit. Als Hexit können auch Mischungen der genannten Hexite verwendet werden, zum Beispiel Mischungen von Mannit und Sorbit und/oder Dulcit. […]

[3] = test system: endogene Hormonproduktion (LH-FSH, Estradiol); type: in vivo, Patientinnen
From the text: Es hat sich nun herausgestellt, daß der Antagonist Cetrorelix gerade bei dieser Behandlung folgende Vorteile aufweist:
Um eine totale Suppression zu erreichen, genügen bei der Behandlung mit Cetrorelix eine Behandlungsdauer von 5 Tagen. […] Darüber hinaus läßt sich in der 2. Therapiephase, der Ovulationsauslösephase, HMG einsparen. Dies stellt einen nicht unbeträchtlichen Kostenvorteil dieser in-vitro-Fertilisationsbehandlung dar. Die in-vitro-Fertilisation wird beispielsweise beim Vorliegen einer Tubenanomalie eingesetzt. Für diese Therapie ist es notwendig, den Zyklus genau zu kontrollieren und den Zeitpunkt der Ovulation möglichst genau festzulegen. Bisher wurde dies nur eingeschränkt erreicht, da durch Stimulation mit HMG/HCG der präovulatorische LH-Anstieg oft zu früh auftrat oder nicht lange genug aufrechterhalten wurde. Es ist jedoch von entscheidender Bedeutung für den Behandlungserfolg, diesen verfrühten Anstieg zu verhindern, um den Befruchtungszeitpunkt genau festlegen zu können. Dadurch wird die körperliche und psychische Belastung der Patientinnen reduziert und die Kliniklogistik optimal eingesetzt. […]

## Cetrorelix
[1]; acid medium (acetic acid solution)
  Hydrolyse der endständigen Amidgruppe: nicht festgestellt
[1]; in 30 % (volume/volume) acetic acid
  Löslichkeit: gut lösen
[2]
  Stabilität der wässrigen Lösungen: instabil
[2]; pharmacopoeial sterilisation (autoclaving in final container)
  Verhalten unter arzneibuchüblicher Sterilisation: neigt unter arzneibuchüblicher Sterilisation zur Zersetzung
[3]; female patients, treatment of infertility
  Behandlungsdauer, um eine totale Suppression zu erreichen: 5 Tagen
[3]; in vivo
  Hyperstimulationssyndrom: kann nicht auftreten
